Structures can show the parent of a compound that is named as a salt. Where two headings read alike, the source gives them in different places. Marks after values point to notes of the source that are not given here.
Assays:
P. falciparum = test: Antimalarial activity in vitro against P. falciparum (Desjardins test, [3H] hypoxanthine incorporation); type: cell-based; conditions: growth in vitro of P. falciparum
Text: FIG. 1 represents the antimalarial activity of compound 6.0 as a function of the drug concentration, according to Desjardins' test, (Desjardins R. E. et al., Antimicrob. Agents Chemother. 1979, 16, 710-718).
(§1) A. Antimalarial Activity In Vitro Against P. Falciparum and In Vivo in Mice Infected with P. Vinckei
(§2) Tables 4 and 5 hereafter show the results of the IC50 values in μM and of ED50 (mg/kg) obtained with compounds of the invention.
(§3) The IC50 is the concentration which inhibits 50% of the growth in vitro of P. falciparum (the IC50 measurements were determined according to the method of Desjardins in which the incorporation of [^3H] hypoxanthine in the nucleic acids serves as a cell viability index) (FIG. 1), the ED50 is the effective dose for inhibiting 50% of the growth in vivo of P. vinckei according to a 4-day suppression test.

P. vinckei = test: Antimalarial activity in vivo in mice infected with P. vinckei, 4-day suppression test; conditions: for ED50: Plasmodium vinckei, 96 h
Description: as §1, §2, §3
TI corresponds to the therapeutic index, TI=LD50 (semi chronic)/ED50; ip: intraperitoneal administration; po: per os.

[1] = parameters: species or system mice; conditions: mouse, in vivo
Description: The results are given hereafter of the pharmacokinetic parameters after administration by intra-peritoneal or oral route in mice for compound 6.0.
For determination of the serum level, bio-tests were used ex vivo: briefly, the medicament is administered to the animal, then blood samples are repeatedly taken. The sera are decomplemented for 30 minutes at 56° C. The active metabolite content is then determined by incubation of different concentrations (dichotomous dilution) of each serum, in the presence of suspensions of erythrocytes infected with P. falciparum, according to the method of DESJARDINS with [^3H] hypoxanthine.
The results are expressed in IS50, which corresponds to the percentage of serum (containing an active metabolite) capable of inhibiting 50% of the growth of P. falciparum.
This value is then converted into serum concentration (usually expressed in ng/ml), by testing the active compound directly (without passing via the animal), on the same suspension infected with P. falciparum and by determining its IC50 value (in ng/ml) [serum count ═IC50] (in ng/ml)×100/SI50 (in %)].
The results are expressed in log (serum count of medicaments), as a function of time, which allows the evaluation of the half-time for the distribution to the serum compartment t1/2(d); the half-time for the elimination of the serum compartment (t1/2(e)); of C0, corresponding to the serum count extrapolated to the origin in the elimination phase; of AUC (which indicates the quantity of drug circulating in the bloodstream); and the relative bio-availability in the administration method by oral route, versus the method by intraperitoneal route [AUC (po)/AUC (ip)] which signifies the degree of absorption by oral route.

Babesia divergens = test: Antibabesia activity in vitro against Babesia divergens; type: cell-based
Description: (§4) The products 6.0, 22.0, and 2.0 were also evaluated in vitro for their activities against Babesia divergens and B. canis.

B. canis = test: Antibabesia activity in vitro against B. canis; type: cell-based
Description: as §4

[2] = ip, tested after 2 administrations of the compound per day for 4 days
[3] = po, tested after 2 administrations of the compound per day for 4 days

NC(CCCCCCCCCCCCC(N)=NOC(=O)c1ccccc1)=NOC(=O)c1ccccc1 [Compound 1.23, 1,12-bis(N,N′-benzoyloxyamidinyl)dodecane]
IC50 (P. falciparum): 1100 nM

N=C1CCCN1CCCCCCCCCCCCN1CCCC1=N [Compound 24.0, 1,12-bis[N,N′-(2-iminopyrrolidinyl)]dodecane]
IC50 (P. falciparum): 4 nM

CCNC(=O)ON=C(N)CCCCCCCCCCCCC(N)=NOC(=O)NCC [Compound 1.24, 1,12-bis(N,N′-ethylcarbamoyloxyamidinyl)dodecane]
IC50 (P. falciparum): 200 nM
ED50 (mg/Kg) P. vinckei (P. vinckei; po, 4-day suppression test): po = 90 mg/Kg

O=S1NC(CCCCCCCCCCCCC2=NOS(=O)N2)=NO1 (stereo not drawn) [Compound 1.28, 1,12-bis[(1.2,3,5-oxathiadiazol-2(3H)-oxide)-4-yl]dodecane]
IC50 (P. falciparum): 200 nM

Cc1noc(=O)n1CCCCCCCCCCCCn1c(C)noc1=O [Compound 20.14, 1,12-bis[N,N′(3-methyl-1,2,4-oxadiazol-5(4H)-one)-3-yl]dodecane]
IC50 (P. falciparum; Plasmodium falciparum): 7100 nM
ED50 (P. vinckei; ip, 4-day suppression test): 9 mg/kg
ED50 (P. vinckei; po, 4-day suppression test): 62 mg/kg

1,12-bis[N,N′-(isobutyloxycarbonyl)amidinyl]dodecane [Compound 1.4]
IC50 (P. falciparum): 500 nM

CON=C(N)CCCCCCCCCCCCC(N)=NOC [Compound 1.16, 1,12-bis(N,N′-methoxyamidinyl)dodecane]
IC50 (P. falciparum): 6800 nM

NC(CCCCCCCCCCCCC(N)=NOC(=O)Oc1ccccc1)=NOC(=O)Oc1ccccc1 [Compound 1.19, 1,12-bis(N,N′-phenoxycarbonyloxyamidinyl)dodecane]
IC50 (P. falciparum): 3600 nM

CC(=O)ON=C(N)CCCCCCCCCCCCC(N)=NOC(C)=O [Compound 1.22, 1,12-bis(N,N′-acetoxyamidinyl)dodecane]
IC50 (P. falciparum): 1400 nM

C(CCCCCCNC1=NCCC1)CCCCCNC1=NCCC1 [Compound 21.0, 1,12-bis[N,N′-(3,4-dihydro-2H-pyrrol-5-yl)amino]dodecane]
IC50 (P. falciparum): 3.8 nM
ED50 (mg/Kg) P. vinckei (P. vinckei; [2]): ip = 2.8* mg/Kg
ED50 (mg/Kg) P. vinckei (P. vinckei; [3]): po = 85* mg/Kg
C0 ([1]; ip, 15 mg/kg): 24 ng/mL
t1/2 ([1]; ip, 15 mg/kg): approximately 35 hours
C0 ([1]; po, 100 mg/kg): 16 ng/mL
apparent t1/2 ([1]; po, 100 mg/kg): 36 h

CCOC(=O)NC(=N)CCCCCCCCCCCCC(=N)NC(=O)OCC [Compound 1.2, 1,12-bis[N,N′-(ethyloxycarbonyl)amidinyl]dodecane]
IC50 (P. falciparum): 300 nM
ED50 (mg/Kg) P. vinckei (P. vinckei; ip, 4-day suppression test): ip 33 mg/Kg

1,12-bis[N,N′-(benzyloxycarbonyl)amidinyl]dodecane [Compound 1.5]
IC50 (P. falciparum): 400 nM

O=c1[nH]c(CCCCCCCCCCCCc2noc(=O)[nH]2)no1 [Compound 1.27, 1,12-bis[(1.2,4-oxadiazol-5(4H)-one)-3-yl]dodecane]
IC50 (P. falciparum): 9200 nM

COC(=O)ON=C(N)CCCCCCCCCCCCC(N)=NOC(=O)OC [Compound 1.18, 1,12-bis(N,N′-methoxycarbonyloxyamidinyl)dodecane]
IC50 (P. falciparum): 1100 nM

N=C(CCCCCCCCCCCCC(=N)N1CCCC1)N1CCCC1 [Compound 2.0, 2 HCl, 1,14-di(pyrrolidin-1-yl)tetradecane-1,14-diimine]
IC50 (Babesia divergens): < 50 nM
IC50 (B. canis): < 50 nM

1,12-bis(N,N′-methoxyacetamidinyl)dodecane [Compound 20.2]
IC50 (P. falciparum): 4350 nM
ED50 (mg/Kg) P. vinckei (P. vinckei; ip, 4-day suppression test): ip = 10 mg/Kg
ED50 (mg/Kg) P. vinckei (P. vinckei; po, 4-day suppression test): po = 110 mg/Kg

CCOC(=O)ON=C(N)CCCCCCCCCCCCC(N)=NOC(=O)OCC [Compound 1.17, 1,12-bis(N,N′-ethoxycarbonyloxyamidinyl)dodecane]
IC50 (P. falciparum): 1200 nM

CS(=O)(=O)OCC(=N)NCCCCCCCCCCCCNC(=N)COS(C)(=O)=O [Compound 20.12, 1,12-bis(N,N′-methylsulfonyloxyacetamidinyl)dodecane]
ED50 (mg/Kg) P. vinckei (P. vinckei; ip, 4-day suppression test): ip = 4.7 mg/Kg
ED50 (mg/Kg) P. vinckei (P. vinckei; po, 4-day suppression test): po = 42 mg/Kg

C(CCCCCCC1=NCCN1)CCCCCC1=NCCN1 [Compound 6.0, 1,12-bis(imidazolin-2-yl)dodecane]
IC50 (P. falciparum): 2 nM
ED50 (mg/Kg) P. vinckei (P. vinckei; [2]): ip = 34* mg/Kg
ED50 (mg/Kg) P. vinckei (P. vinckei; [3]): po = 62* mg/Kg

O=C(Oc1ccc(F)cc1)N1CCN=C1CCCCCCCCCCCCC1=NCCN1C(=O)Oc1ccc(F)cc1 [Compound 6.8, 1,12-bis[N,N′-(4-fluorophenylyloxycarbonyl)imidazolin-2-yl]dodecane]
IC50 (P. falciparum): 69500 nM

CC(C)(C)OC(=O)N=C(NCCCCCCCCCCCCNC(=NC(=O)OC(C)(C)C)NC(=O)OC(C)(C)C)NC(=O)OC(C)(C)C [Compound 12.2, 1,12-bis(N,N′-di-tert-butyloxycarbonylguanidino)dodecane]
IC50 (P. falciparum): 1900 nM

NC(CCCCCCCCCCCCC(N)=NO)=NO [Compound 1.15, 1,12-bis(N,N′-hydroxyamidinyl)dodecane]
IC50 (P. falciparum): 3500 nM
ED50 (mg/Kg) P. vinckei (P. vinckei; po, 4-day suppression test): po = 120 mg/Kg

O=C(OCc1ccccc1)N1CCN=C1CCCCCCCCCCCCC1=NCCN1C(=O)OCc1ccccc1 [Compound 6.5, 1,12-bis[N,N′-(benzyloxycarbonyl)imidazolin-2-yl]dodecane]
IC50 (P. falciparum): 12000 nM
ED50 (mg/Kg) P. vinckei (P. vinckei; [2]): ip < 20* mg/Kg
ED50 (mg/Kg) P. vinckei (P. vinckei; [3]): po ≈ 100* mg/Kg

CC(=N)NCCCCCCCCCCCCNC(C)=N [Compound 20.0, 1,12-bis(N,N′-acetamidinyl)dodecane]
IC50 (P. falciparum): 2 nM
ED50 (mg/Kg) P. vinckei (P. vinckei; [2]): ip = 2.3* mg/Kg

N=C(CCCCCCCCCCCCC(=N)N1CCCCC1)N1CCCCC1 [Compound 3.0, 1,14-di(piperidin-1-yl)tetradecane-1,14-diimine]
IC50 (P. falciparum; Plasmodium falciparum): 4.9 nM

CC1(C)CN=C(NCCCCCCCCCCCCNC2=NCCC2)NC1 [25.0, 2 TFA]
IC50 (P. falciparum): 1.9 nM

O=c1[nH]c(CCCCCCCCCCCCc2nsc(=O)[nH]2)ns1 [Compound 1.30, 1,12-bis[(1.2,4-thiadiazol-5(4H)-one)-3-yl]dodecane]
IC50 (P. falciparum): 20 nM
ED50 (mg/Kg) P. vinckei (P. vinckei; ip, 4-day suppression test): ip = 20 mg/Kg
